Assay results from ChEMBL document CHEMBL1154011, “Discovery and structural analysis of Eph receptor tyrosine kinase inhibitors” (Bioorg Med Chem Lett, 2009).
Calls of active or inactive are those of the source. No cut-off for these calls is given here.

Legend:
[1] = biological target: T1, Ephrin type-B receptor 1 (Homo sapiens) (UniProt P54762); test: Inhibition of EphB1 at 10 uM
T1 sequence (whole entry): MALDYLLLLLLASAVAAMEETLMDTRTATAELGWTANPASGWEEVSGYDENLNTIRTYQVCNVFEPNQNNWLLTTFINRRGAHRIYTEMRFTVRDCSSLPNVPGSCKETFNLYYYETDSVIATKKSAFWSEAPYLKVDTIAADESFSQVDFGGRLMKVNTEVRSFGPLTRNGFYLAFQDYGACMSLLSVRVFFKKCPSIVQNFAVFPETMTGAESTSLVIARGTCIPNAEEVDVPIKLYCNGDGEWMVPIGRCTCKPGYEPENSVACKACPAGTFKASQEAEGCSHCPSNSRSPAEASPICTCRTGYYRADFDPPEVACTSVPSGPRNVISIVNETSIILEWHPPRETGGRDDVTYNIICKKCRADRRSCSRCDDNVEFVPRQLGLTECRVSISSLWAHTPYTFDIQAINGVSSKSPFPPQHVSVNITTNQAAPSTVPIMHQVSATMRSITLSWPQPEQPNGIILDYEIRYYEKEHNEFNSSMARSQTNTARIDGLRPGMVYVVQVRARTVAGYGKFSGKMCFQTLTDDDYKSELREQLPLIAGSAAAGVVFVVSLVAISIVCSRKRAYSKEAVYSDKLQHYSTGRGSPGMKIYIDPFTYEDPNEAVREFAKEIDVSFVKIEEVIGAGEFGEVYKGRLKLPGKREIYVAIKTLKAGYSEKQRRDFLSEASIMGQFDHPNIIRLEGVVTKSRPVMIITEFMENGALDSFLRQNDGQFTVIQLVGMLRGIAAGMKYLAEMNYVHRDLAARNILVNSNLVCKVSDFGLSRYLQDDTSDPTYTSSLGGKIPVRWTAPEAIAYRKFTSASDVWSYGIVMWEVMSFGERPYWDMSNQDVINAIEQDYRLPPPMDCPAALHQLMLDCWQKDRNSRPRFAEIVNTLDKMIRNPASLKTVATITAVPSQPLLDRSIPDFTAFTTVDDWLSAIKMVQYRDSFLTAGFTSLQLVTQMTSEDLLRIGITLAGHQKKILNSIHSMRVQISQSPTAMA

[2] = biological target: Serine/threonine-protein kinase B-raf (Homo sapiens) (UniProt P15056); test: Inhibition of Tel fused b-Raf expressed in mouse BA/F3 cells; assay type: cell-based; details: BaF3
Sequence of Serine/threonine-protein kinase B-raf (Homo sapiens) (P15056 whole entry, the tested form may be a part): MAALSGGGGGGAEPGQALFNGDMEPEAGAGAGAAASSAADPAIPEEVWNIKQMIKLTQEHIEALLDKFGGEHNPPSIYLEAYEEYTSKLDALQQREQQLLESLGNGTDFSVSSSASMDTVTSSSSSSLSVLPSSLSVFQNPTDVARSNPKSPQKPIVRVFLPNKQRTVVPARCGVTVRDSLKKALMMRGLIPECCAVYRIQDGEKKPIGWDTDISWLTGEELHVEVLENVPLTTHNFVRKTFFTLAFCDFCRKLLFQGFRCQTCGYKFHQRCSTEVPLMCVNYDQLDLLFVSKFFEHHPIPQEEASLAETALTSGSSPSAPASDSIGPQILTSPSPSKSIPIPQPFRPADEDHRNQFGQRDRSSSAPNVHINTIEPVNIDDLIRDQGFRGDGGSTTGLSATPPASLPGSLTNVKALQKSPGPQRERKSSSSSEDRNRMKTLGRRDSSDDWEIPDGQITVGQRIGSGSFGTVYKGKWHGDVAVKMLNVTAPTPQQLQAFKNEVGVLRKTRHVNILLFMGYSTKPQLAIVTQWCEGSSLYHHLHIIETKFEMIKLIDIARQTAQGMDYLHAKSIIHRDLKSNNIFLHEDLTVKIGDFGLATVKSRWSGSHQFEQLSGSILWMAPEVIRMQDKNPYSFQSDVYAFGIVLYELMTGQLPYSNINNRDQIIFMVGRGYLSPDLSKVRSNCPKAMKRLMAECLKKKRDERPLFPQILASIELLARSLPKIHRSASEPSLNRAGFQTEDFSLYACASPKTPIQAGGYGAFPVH

[3] = biological target: T2, Ephrin type-A receptor 6 (Homo sapiens) (UniProt Q9UF33); test: Inhibition of EphA6 at 10 uM
T2 sequence (whole entry): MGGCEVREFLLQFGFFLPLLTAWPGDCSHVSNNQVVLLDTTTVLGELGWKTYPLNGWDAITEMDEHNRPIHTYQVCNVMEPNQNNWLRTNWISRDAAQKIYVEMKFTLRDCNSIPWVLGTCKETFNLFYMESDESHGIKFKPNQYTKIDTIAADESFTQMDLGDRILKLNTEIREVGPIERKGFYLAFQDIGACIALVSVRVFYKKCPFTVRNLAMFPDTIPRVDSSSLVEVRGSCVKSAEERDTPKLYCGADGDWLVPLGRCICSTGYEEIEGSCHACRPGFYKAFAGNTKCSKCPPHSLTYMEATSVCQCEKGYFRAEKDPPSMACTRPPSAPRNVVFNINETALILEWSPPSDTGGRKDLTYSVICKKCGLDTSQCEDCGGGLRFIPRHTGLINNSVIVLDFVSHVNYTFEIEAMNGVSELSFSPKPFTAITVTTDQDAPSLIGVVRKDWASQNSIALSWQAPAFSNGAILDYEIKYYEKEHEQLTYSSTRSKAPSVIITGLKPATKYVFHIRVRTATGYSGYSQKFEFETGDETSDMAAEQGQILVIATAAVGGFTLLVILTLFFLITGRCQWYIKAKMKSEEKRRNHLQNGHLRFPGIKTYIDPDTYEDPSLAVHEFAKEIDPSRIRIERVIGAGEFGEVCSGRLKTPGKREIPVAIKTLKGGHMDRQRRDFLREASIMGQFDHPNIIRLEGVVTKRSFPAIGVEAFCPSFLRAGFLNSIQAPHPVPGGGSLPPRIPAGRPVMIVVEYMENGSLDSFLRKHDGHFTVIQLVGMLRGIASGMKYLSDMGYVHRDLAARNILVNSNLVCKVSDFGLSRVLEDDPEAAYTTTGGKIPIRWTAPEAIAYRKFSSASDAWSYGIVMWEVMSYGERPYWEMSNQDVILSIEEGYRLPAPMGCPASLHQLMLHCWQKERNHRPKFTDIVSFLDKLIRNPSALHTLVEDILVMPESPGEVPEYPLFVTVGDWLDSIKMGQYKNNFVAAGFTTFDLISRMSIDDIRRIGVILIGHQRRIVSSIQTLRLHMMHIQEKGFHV

[4] = biological target: Ephrin type-A receptor 7 (Homo sapiens) (UniProt Q15375); test: Inhibition of EphA7 at 10 uM
Sequence of Ephrin type-A receptor 7 (Homo sapiens) (Q15375 28-998 limits assumed): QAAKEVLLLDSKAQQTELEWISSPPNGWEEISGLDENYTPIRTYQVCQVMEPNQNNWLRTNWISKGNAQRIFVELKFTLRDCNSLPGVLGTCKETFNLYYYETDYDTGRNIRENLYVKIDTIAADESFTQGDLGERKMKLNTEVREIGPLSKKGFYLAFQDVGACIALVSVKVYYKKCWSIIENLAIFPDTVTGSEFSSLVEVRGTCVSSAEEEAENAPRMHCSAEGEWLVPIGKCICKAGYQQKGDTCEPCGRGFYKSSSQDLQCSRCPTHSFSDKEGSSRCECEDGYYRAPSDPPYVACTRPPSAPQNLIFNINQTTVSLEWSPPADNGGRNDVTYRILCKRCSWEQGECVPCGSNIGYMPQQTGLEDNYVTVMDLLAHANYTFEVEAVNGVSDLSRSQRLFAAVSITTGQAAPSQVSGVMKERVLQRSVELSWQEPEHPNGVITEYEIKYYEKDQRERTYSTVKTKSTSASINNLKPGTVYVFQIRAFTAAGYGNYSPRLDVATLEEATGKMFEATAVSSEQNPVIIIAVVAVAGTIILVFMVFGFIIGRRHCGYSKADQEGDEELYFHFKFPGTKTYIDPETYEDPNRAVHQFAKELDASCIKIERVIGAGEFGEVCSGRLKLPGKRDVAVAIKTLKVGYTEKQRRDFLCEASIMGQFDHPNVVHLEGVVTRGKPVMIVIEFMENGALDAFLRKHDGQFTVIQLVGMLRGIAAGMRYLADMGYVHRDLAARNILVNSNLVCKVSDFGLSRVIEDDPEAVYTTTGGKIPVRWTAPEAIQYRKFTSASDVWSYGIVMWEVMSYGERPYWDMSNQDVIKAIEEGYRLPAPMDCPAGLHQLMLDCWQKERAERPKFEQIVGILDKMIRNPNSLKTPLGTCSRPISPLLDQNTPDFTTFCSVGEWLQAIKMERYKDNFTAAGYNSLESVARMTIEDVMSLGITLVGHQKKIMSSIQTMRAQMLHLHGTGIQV

[5] = biological target: Serine/threonine-protein kinase B-raf (Homo sapiens) (UniProt P15056); test: Inhibition of b-Raf at 100 uM
[6] = biological target: Platelet-derived growth factor receptor alpha (Homo sapiens) (UniProt P16234); test: Inhibition of PDGFRalpha at 10 uM
[7] = biological target: Ephrin type-A receptor 8 (Homo sapiens) (UniProt P29322); test: Inhibition of EphA8 at 10 uM
[8] = biological target: Tyrosine-protein kinase ABL1 (Homo sapiens) (UniProt P00519); test: Inhibition of Abl expressed in mouse BA/F3 cells; assay type: cell-based; details: BaF3
Sequence of Tyrosine-protein kinase ABL1 (Homo sapiens) (P00519 whole entry): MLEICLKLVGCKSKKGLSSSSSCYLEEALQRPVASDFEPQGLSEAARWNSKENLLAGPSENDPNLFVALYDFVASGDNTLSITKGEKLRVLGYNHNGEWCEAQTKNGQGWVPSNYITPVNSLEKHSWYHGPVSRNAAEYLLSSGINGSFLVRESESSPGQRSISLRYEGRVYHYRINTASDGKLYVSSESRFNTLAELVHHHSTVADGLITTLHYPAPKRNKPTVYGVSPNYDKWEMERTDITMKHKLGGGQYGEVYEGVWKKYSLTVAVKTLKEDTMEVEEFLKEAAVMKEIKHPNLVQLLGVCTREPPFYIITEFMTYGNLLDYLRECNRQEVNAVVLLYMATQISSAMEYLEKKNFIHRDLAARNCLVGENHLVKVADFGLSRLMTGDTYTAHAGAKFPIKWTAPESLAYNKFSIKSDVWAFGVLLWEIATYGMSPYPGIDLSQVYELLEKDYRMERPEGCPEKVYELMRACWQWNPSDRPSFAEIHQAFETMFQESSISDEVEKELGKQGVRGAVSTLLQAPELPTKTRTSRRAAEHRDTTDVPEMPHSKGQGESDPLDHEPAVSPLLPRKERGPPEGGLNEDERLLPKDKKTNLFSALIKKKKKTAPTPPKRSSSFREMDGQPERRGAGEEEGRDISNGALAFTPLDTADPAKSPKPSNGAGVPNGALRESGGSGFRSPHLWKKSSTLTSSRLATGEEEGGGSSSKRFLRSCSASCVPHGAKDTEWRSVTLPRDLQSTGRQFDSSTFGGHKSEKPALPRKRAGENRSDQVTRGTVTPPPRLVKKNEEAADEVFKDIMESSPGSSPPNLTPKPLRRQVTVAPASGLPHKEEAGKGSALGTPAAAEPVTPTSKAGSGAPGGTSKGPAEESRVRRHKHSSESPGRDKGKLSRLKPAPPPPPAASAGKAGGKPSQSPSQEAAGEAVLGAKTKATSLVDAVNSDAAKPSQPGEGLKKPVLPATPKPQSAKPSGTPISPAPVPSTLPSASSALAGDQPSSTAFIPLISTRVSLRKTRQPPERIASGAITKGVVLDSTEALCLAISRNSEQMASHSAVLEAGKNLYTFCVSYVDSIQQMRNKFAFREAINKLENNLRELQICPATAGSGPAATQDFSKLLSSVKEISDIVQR

[9] = biological target: RAF proto-oncogene serine/threonine-protein kinase (Homo sapiens) (UniProt P04049); test: Inhibition of RAF1 at 10 uM
[10] = biological target: Mitogen-activated protein kinase 14 (Homo sapiens) (UniProt Q16539); test: Inhibition of p38alpha at 10 uM
Sequence of Mitogen-activated protein kinase 14 (Homo sapiens) (Q16539 whole entry): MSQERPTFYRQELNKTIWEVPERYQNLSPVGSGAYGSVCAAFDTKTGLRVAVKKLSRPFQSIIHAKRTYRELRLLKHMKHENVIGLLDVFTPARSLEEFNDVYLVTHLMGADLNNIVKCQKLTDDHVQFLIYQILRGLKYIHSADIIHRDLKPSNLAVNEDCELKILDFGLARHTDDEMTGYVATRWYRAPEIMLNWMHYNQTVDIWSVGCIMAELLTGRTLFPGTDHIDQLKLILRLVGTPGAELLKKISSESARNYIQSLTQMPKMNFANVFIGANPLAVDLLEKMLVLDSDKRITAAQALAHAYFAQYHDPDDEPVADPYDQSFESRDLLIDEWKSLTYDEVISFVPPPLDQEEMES

BaF3 = test: Inhibition of PDGFR expressed in mouse BA/F3 cells; assay type: cell-based
[11] = biological target: Ephrin type-A receptor 2 (Homo sapiens) (UniProt P29317); test: Inhibition of EphA2 at 10 uM
[12] = biological target: Epithelial discoidin domain-containing receptor 1 (Homo sapiens) (UniProt Q08345); test: Inhibition of DDR1 at 10 uM
[13] = biological target: Bcr/Abl fusion protein (Homo sapiens) (UniProt P00519+P11274); test: Inhibition of Bcr-Abl expressed in mouse BA/F3 cells; assay type: cell-based; details: BaF3
[14] = biological target: Ephrin type-B receptor 2 (Homo sapiens) (UniProt P29323); test: Inhibition of EphB2 at 10 uM
[15] = biological target: Ephrin type-B receptor 3 (Homo sapiens) (UniProt P54753); test: Inhibition of EphB3 at 10 uM
[16] = biological target: Mitogen-activated protein kinase 11 (Homo sapiens) (UniProt Q15759); test: Inhibition of p38beta at 10 uM
[17] = biological target: Tyrosine-protein kinase FRK (Homo sapiens) (UniProt P42685); test: Inhibition of Frk at 10 uM
[18] = biological target: Mast/stem cell growth factor receptor Kit (Homo sapiens) (UniProt P10721); test: Inhibition of c-kit expressed in mouse BA/F3 cells; assay type: cell-based; details: BaF3
Sequence of Mast/stem cell growth factor receptor Kit (Homo sapiens) (P10721 whole entry): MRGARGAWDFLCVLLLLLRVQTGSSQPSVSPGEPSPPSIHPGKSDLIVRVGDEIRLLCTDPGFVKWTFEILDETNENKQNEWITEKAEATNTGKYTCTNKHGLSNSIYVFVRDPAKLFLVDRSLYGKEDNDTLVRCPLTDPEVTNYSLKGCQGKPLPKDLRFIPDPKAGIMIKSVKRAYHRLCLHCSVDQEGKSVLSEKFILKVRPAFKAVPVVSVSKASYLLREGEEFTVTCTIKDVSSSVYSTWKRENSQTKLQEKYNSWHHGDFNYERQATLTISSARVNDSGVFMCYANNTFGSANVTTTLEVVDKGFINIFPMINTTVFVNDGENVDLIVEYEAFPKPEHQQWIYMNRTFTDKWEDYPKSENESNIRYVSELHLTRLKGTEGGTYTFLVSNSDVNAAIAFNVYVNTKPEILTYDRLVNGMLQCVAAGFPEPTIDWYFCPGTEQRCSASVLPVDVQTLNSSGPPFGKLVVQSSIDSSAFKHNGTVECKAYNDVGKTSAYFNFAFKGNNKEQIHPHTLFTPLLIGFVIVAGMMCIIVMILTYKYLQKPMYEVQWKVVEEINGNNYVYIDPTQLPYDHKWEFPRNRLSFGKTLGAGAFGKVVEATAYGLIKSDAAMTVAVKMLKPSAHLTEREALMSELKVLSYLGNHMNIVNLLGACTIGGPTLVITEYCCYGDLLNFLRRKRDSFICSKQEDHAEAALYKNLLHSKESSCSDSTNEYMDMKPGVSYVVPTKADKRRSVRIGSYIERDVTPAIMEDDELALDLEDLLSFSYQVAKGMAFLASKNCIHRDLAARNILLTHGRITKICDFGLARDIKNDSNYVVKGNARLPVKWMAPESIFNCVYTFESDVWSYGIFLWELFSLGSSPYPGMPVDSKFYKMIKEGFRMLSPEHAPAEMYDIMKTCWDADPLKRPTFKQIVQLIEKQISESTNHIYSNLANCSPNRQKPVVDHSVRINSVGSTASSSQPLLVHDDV

[19] = biological target: Ephrin type-A receptor 5 (Homo sapiens) (UniProt P54756); test: Inhibition of EphA5 at 10 uM
[20] = biological target: Macrophage colony-stimulating factor 1 receptor (Homo sapiens) (UniProt P07333); test: Inhibition of CSF1R at 10 uM
[21] = biological target: Platelet-derived growth factor receptor beta (Homo sapiens) (UniProt P09619); test: Inhibition of PDGFRbeta at 10 uM
[22] = biological target: Mast/stem cell growth factor receptor Kit (Homo sapiens) (UniProt P10721); test: Inhibition of Kit at 10 uM
[23] = biological target: Tyrosine-protein kinase Lck (Homo sapiens) (UniProt P06239); test: Inhibition of Lck at 10 uM
[24] = biological target: Discoidin domain-containing receptor 2 (Homo sapiens) (UniProt Q16832); test: Inhibition of DDR2 at 10 uM
[25] = biological target: Fibroblast growth factor receptor 3 (Homo sapiens) (UniProt P22607); test: Inhibition of FGFR3 expressed in mouse BA/F3 cells; assay type: cell-based; details: BaF3
Sequence of Fibroblast growth factor receptor 3 (Homo sapiens) (P22607 23-806 limits assumed): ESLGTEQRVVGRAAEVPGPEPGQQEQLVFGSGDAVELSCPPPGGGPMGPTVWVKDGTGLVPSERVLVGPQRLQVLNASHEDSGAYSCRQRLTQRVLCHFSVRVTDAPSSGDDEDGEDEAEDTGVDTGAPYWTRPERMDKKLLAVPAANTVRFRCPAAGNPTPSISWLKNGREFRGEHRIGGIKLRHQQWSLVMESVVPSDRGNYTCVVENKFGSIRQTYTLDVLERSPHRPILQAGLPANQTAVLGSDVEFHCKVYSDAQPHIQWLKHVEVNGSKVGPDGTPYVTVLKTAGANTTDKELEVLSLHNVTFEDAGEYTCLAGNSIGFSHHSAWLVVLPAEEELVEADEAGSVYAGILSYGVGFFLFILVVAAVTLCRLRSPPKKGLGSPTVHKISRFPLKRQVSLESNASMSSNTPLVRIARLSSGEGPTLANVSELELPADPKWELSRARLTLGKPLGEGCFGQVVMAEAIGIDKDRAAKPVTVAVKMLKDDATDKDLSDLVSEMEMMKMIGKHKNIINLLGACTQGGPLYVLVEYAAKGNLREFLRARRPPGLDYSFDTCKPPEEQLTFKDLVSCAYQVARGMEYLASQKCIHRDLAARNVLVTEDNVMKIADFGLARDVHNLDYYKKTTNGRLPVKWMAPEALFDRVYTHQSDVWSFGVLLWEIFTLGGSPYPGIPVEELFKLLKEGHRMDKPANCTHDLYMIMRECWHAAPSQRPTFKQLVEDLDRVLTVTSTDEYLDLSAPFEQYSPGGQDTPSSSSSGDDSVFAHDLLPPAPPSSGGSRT

[26] = biological target: Fibroblast growth factor receptor 4 (Homo sapiens) (UniProt P22455); test: Inhibition of FGFR4 expressed in mouse BA/F3 cells; assay type: cell-based; details: BaF3
[27] = biological target: Fibroblast growth factor receptor 2 (Homo sapiens) (UniProt P21802); test: Inhibition of FGFR2 expressed in mouse BA/F3 cells; assay type: cell-based; details: BaF3

Structure (SMILES) | inhibition [1] | inhibition [2] | inhibition [3] | inhibition [4] | inhibition [8] | inhibition [13] | inhibition [18] | inhibition (BaF3) | also measured
Cc1cn(-c2cc(NC(=O)c3ccc(C)c(NC(=O)c4ccno4)c3)cc(C(F)(F)F)c2)cn1 | inactive | inactive | inactive | inactive |  |  |  |  | 
CCN1CCN(Cc2ccc(NC(=O)c3ccc(C)c(NC(=O)c4cncc(-c5cccs5)c4)c3)cc2C(F)(F)F)CC1 | Active |  |  |  | Active | Active | Active | Active | inhibition [5]: Active; inhibition [6]: Active; inhibition [7]: Active; inhibition [9]: Active; inhibition [10]: Active; inhibition [11]: Active; inhibition [12]: Active; inhibition [14]: Active; inhibition [15]: Active; inhibition [16]: Active; inhibition [17]: Active; inhibition [19]: Active; inhibition [20]: Active; inhibition [21]: Active; inhibition [22]: Active; inhibition [23]: Active; inhibition [24]: Active

Continued, in another order:

inhibition [1] | inhibition [2] | inhibition [3] | inhibition [4] | inhibition [8] | inhibition [13] | inhibition [18] | Structure (SMILES) | inhibition (BaF3) | also measured
 |  |  |  | Active |  | Active | Cc1ccc(C(=O)Nc2cccc(C(F)(F)F)c2)cc1Nc1[nH]cnc2ncnc1-2 | Active | inhibition [25]: Active; inhibition [26]: Active; inhibition [27]: Active
inactive |  | inactive | inactive | Active | Active | Active | Cc1ccc(C(=O)Nc2cccc(C(F)(F)F)c2)cc1Nc1ccc2occc(=O)c2c1 | Active | 
inactive | inactive | inactive | inactive |  |  |  | Cc1ccc(C(=O)Nc2cccc(C(F)(F)F)c2)cc1Nc1cncc(C(N)=O)c1 |  | 
